Where a name gives a salt, the structure may show the parent alone. Read-outs that look alike come from different tables or passages of the source.
Experiments:
WNV replicon = assay: microbe, parasite or virus in culture; format: cell-based, West Nile virus (WNV); details: for inhibition at 50 µM / EC50: West Nile virus, Vero; for inhibition at 50 µM: read-out: % Replicon Inhibition (Means ± SEM) WNV; for EC50: read-out: WNV replicon EC50
DENV2 replicon = assay: microbe, parasite or virus in culture; format: cell-based, Dengue Virus 2 (DENV2); details: for inhibition at 50 µM / EC50: Dengue virus; for inhibition at 50 µM: DENV2, BHK-21, read-out: % Replicon Inhibition (Means ± SEM) DENV2; for EC50: DENV2, BHK-21, read-out: DENV replicon EC50
DENV2 = assay: Inhibition of DENV2 infectivity in BHK-21 cells, plaque assay of supernatants; format: cell-based, Dengue Virus 2 (DENV2); details: Dengue virus, DENV2, BHK-21, 72 h, read-out: EC90 for inhibition of DENV2 infectivity (plaque assay)
Method: BHK-21 cells were seeded into 12-well plates (10^5 cells/well) and incubated overnight at 37° C. Cells were infected with DENV2 at a multiplicity of infection (MOI) of 0.01 or 1 as indicated. After infection, cells were washed with PBS and incubated with 1.5 mL of MEM supplemented with 2% FBS, 100 I.U./mL penicillin/100 μg/mL streptomycin (referred to as maintenance medium). AQ, at indicated concentrations, was added and cells were incubated at 37° C. for various time points as indicated. DMSO (1%), as a no-compound control (100% infection), and mock-infected control using medium alone (0% infection) were included. Supernatants were collected from the time point experiments and the virus titers determined by plaque assay.
BHK-21 cells were seeded at ˜10^5 cells/well (12-well plate) or ˜5×10^4 cells/well (24-well plate) and then incubated at 37° C. until reaching 90% confluence. Cells were infected with the supernatants collected from experiments of AQ treatments. Cells were washed with PBS, and incubated with 1.5 mL of overlay medium (maintenance medium containing 1% methylcellulose). The plates were incubated for 3-4 days at 37° C. under 5% CO2. After plaques became visually apparent by microscopy, cells were fixed and stained with 11.1% formaldehyde, 4.75% isopropanol, and 1% crystal violet for 30 minutes. The number of plaque forming units (PFU) per mL was determined.
BHK-21 cells were seeded as described above. AQ, at indicated concentrations in 1% DMSO, was added to DENV2 (MOI of 0.01 or 1)-infected cells during adsorption and/or post-infection. Supernatants were collected at indicated time points post-infection for plaque assays.

in vitro [1] = details: hamster
in vitro [2] = details: African green monkey
Vero cells = details: African green monkey
BHK-21 cells = details: hamster

Compound	% Replicon Inhibition (Means ± SEM) DENV2 (DENV2 replicon)	inhibition at 50 µM (WNV replicon) [%]	inhibition at 50 µM (DENV2 replicon) [%]	% Replicon Inhibition (Means ± SEM) WNV (WNV replicon)	also measured
C/C=C1\CN2CC[C@H]1C[C@H]2[C@H](O)c1ccnc2ccc(O)cc12 [apoquinine]	— (key: —: “-” refers to no inhibition)	–	–	–	% Replicon Inhibition (Means ± SEM) WNV (WNV replicon; 50 μM in 1% DMSO, Vero/WNV replicon cells): 33.7 ± 2.9%
CCN(CC)CCCC(C)Nc1ccnc2cc(Cl)ccc12 (stereo not drawn) [chloroquine (CQ), chloroquine]	–	18.5 ± 2.8	54.8 ± 4.5	–	inhibition of DENV2 replicon replication (in words) (DENV2 replicon): did not inhibit DENV2 replicon replication; EC90 (DENV2): 5.04 ± 0.72 µM
CC(CCc1ccc(N(CCCl)CCCl)cc1)Nc1ccnc2cc(Cl)ccc12 (stereo not drawn) [chloroquine ethyl phenyl mustard]	99.8 ± 0.03%	> 99	> 99	99.5 ± 0.05%	EC50 (WNV replicon): 1.55 ± 0.4 µM; EC50 (DENV2 replicon): 3.6 ± 0.83 µM; CC50 (in vitro [1]): 74.1 ± 21.5 µM; CC50 (in vitro [2]): 5.02 ± 1.23 µM
CC(CCCN(CCCl)CCCl)Nc1ccnc2cc(Cl)ccc12.O=C(O)c1cc2ccccc2c(Cc2c(O)c(C(=O)O)cc3ccccc23)c1O [chloroquine mustard pamoate]	47.5 ± 4.9%	–	–	10.35 ± 4.1%	–
CC(CCCN(CCCl)CCCl)Nc1ccnc2cc(Cl)ccc12 (stereo not drawn) [chloroquine mustard]	99.6 ± 0.32%	> 99	> 99	99.8 ± 0.03%	CC50 (Vero cells): 3.64 ± 0.93 µM; EC50 (WNV replicon): 2.95 ± 0.77 µM; EC50 (DENV2 replicon): 2.9 ± 0.78 µM; CC50 (BHK-21 cells): 30.5 ± 9.77 µM
COc1cc(NC(C)CCCN)c2ncccc2c1 (stereo not drawn) [primaquine]	–	< 0	< 0	–	–
C=C[C@H]1C[N@@]2CC[C@H]1C[C@H]2[C@H](O)c1ccnc2ccc(OC)cc12 [quinine, hydrobromide hydrate]	–	34.9 ± 6.7	2.8 ± 0.25	–	–
chloroquine sulfate	28.1 ± 3.6%	–	–	— (key: —: “-” refers to no inhibition)	–
